# “Also recorded” adds a separate entry of the source. Read-outs that look alike come from different tables or passages of the source.
# Legend:
# [1] = molecular target: T1, LsrK (Salmonella typhimurium, UniProt Q8ZKQ6); test: LsrK inhibition assay (Kinase-Glo luminescence); assay type: biochemical; conditions: for Inhibition (%): Supplementary Table 1, 200 uM compound, * = colour of the compound interferes with luminescence; for Inhibition (%) / IC50 / inhibition at 200 µM: mean ± SD, n = 3; for inhibition at 200 µM: Table 1, hits at 200 μM with 100 μM ATP; for type of LsrK inhibition: from IC50 values at 50, 100 and 150 μM ATP
# Description: (§1) To express LsrK with a 6 × His-tag at the C-terminus, the LsrK encoding gene of Salmonella typhimurium was amplified using primers carrying restriction endonuclease sites BamHI and XhoI. The amplified product was cloned into the expression vector pET-28a with a C-terminal 6 × His-tag and transfected into E. coli BL21 (DE3).
# This assay was performed as previously described ([Gatta et al., 2019]), and the conditions were optimized. […] 74 purchased compounds were dissolved in dimethyl sulfoxide (20% v/v DMSO in reaction buffer) at a concentration of 2 mM. Briefly, 10 μL DPD, 10 μL LsrK, and 5 μL compound were added to a 96-well plate, and 25 μL ATP or 25 μL reaction buffer was added after 30 min incubation. The plate was incubated for 10 min at 37°C, then 50 μL of kit reagent was added, and the plate was incubated at 37°C for 15 min. The luminescence signal was measured using an Enspire 2300 microplate reader (PerkinElmer). Dose-response tests were carried out to verify the activity of hits chosen by primary screening. (200 μM–6.25 µM) ([Medarametla et al., 2018]). The inhibition percentage of each tested compound was determined as previously described and IC50 was calculated using four logistic parameters.
# [2] = system: AI-2-mediated QS (lsr promoter luminescence, reporter strain WHQ02); test: Cell-based AI-2-mediated QS interference assay; design: species or system E. coli; conditions: for IC50: Escherichia coli, cell-based QS interference assay, WHQ02, mean ± SD, n = 3; for AI-2 QS inhibitory activity (in words) / maximum AI-2 QS inhibition: 100 to 3.13 μM
# Description: All chemicals were purchased from Sigma-Aldrich (St. Louis, MO, United States) unless otherwise stated. DPD was purchased from the […] ZZBIO Co., LTD. (Shanghai, China). The Kinase-Glo Max Luminescent Kinase Assay Kit was purchased from Promega (Madison, WI, United States). NTA sensor chips were purchased from GE Healthcare (Chicago, IL, United States). All compounds used as potential inhibitors of LsrK were purchased from Topscience Biotechnology Co. Ltd. (Shanghai, China). The QS reporter strain WHQ02 (E. coli BL21 ΔTolC pWHQ01) was donated by Huiqi Wen (Institute of Microbiology and Epidemiology, Academy of Military Sciences, Beijing, China). The plasmid pWHQ01 was constructed by cloning the lsr promoter and the luxCDABE luminescent gene. BamHI and XhoI were purchased from New England Biolabs (Ipswich, MA, United States). pET-28a was purchased from Novagen (Madison, WI, United States). Escherichia coli BL21 (DE3) cells were purchased from TransGen Biotech Co., LTD. (Beijing, China). A Ni-NTA column was purchased from Sangon Biotech (Shanghai, China). Sodium dodecyl sulfate-polyacrylamide gel electrophoresis (SDS-PAGE) and the Bradford Protein Assay Kit were purchased from Thermo Fisher Scientific (Waltham, MA, United States).
# (§2) WHQ02 cultured overnight were diluted 1:100 in fresh LB supplemented with 100 μg/mL ampicillin and grown at 30°C and until the logarithmic phase (OD600 = 0.4–0.6). The bacterial culture was centrifuged at 4,000 × g for 5 min, and the pellet was resuspended in fresh LB medium to prepare a suspension of 2 McFarland standard and added to the 96-well plate. In the experimental group, 74 compounds (final concentrations ranging from 100 to 3.125 μM) were added to reach a total volume of 100 µL. In addition, 100 µL LB medium with an equal volume of DMSO (negative control) or 100 µL LB supplemented with 2% glucose and the same volume of DMSO (positive control) were added. Bacteria was cultured at 37°C with shaking for 3 h. The […] of WHQ02 is directly regulated by the lsr promoter, reflecting the strength of QS. The luminescence and OD600 were measured using an Enspire 2300 microplate reader (Perkin Elmer). To further study the effect of compounds on bacterial growth, overnight cultured WHQ02 was diluted 1:1,000 with LB medium and added to 96 well plate. Then, the compounds were added to a 96-well plate (final concentration: 100 µM) and diluted in a gradient. The same volume of DMSO was added to the control group. The plates were incubated at 37°C for 18 h. OD600 values were recorded using an Enspire 2300 microplate reader. The experiment was performed in triplicate.
# [3] = system: WHQ02 (E. coli BL21 ΔTolC pWHQ01); test: Growth inhibition of the reporter strain (OD600); assay type: cell-based; conditions: 100 to 3.13 μM
# Description: as §2
# The 12 hits showing >60% LsrK inhibition were tested for QS inhibition using cell-based AI-2-mediated QS interference assay, as previously described [Baba et al., 2006]). To ensure that lower luminescence was the result of QS inhibition not the chemical toxicity or antibacterial activity, strain growth inhibition was assessed concurrently. […] Therefore, a parallel experiment to test the MIC of compounds at a low bacterial density was conducted, indirectly reflecting the potential growth inhibition to avoid false positives.
# [4] = system: AI-2 QS; conditions: Figure 2, ref Gatta et al., cited from earlier work
# [5] = system: LsrK; conditions: Figure 2, cited from earlier work
# [6] = molecular target: T1, LsrK; test: SPR assay; assay type: binding
# Description: as §1
# His-tagged LsrK was immobilized in the NTA sensor chip (GE Healthcare) in Biacore 8 K using a running buffer consisting of 1 × PBS-T and 5% v/v DMSO. Serially diluted small molecules (concentration range: 50 to 1.56 µM) were injected. Intermediate concentration (12.5 µM) was set as a repeat, and 1 × PBS-T with 5% v/v DMSO was set as the control. The association time was set to 120 s; the dissociation time was set to 130 s; and the flow rate was set to 30 μL/min. The resulting data were fitted to the affinity binding model using Biacore Evaluation Software (GE Healthcare).
# T1 sequence (Q8ZKQ6 whole entry): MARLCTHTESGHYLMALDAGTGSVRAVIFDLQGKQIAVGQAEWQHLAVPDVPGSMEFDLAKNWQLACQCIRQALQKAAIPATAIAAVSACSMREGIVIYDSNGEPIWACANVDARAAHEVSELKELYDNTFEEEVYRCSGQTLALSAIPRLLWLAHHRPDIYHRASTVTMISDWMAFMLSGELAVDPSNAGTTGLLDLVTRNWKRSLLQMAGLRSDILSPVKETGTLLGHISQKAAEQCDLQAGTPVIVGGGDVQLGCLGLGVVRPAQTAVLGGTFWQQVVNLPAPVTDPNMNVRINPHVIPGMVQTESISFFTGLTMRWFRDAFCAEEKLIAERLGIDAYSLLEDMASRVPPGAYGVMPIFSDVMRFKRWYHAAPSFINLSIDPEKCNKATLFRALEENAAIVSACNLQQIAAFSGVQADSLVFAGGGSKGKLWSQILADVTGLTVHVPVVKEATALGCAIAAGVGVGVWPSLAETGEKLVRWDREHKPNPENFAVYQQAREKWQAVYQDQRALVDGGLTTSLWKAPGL
smiles,measurement,setting,value
CC(C)c1ccc2nc(Cc3cccc(C(N)=O)c3)[nH]c(=O)c2c1 [Z951211480],Inhibition (%),[1]; 100 μM ATP,0%
Cc1ccc(C(=O)O)cc1NC(=O)c1nn2cccnc2c1Cl [Y502-2013],IC50,[2],> 100 µM
same,IC50,"[1]; 100 μM ATP, read-out: IC50B",140 ± 5.54 µM
same,inhibition at 200 µM,[1],69.1 ± 8.64%
CCOc1ccc(/C=N\NC(=S)Nc2cccc(C(=O)O)c2)cc1O [3284–0335],IC50,[2],> 100 µM
same,IC50,"[1]; 100 μM ATP, read-out: IC50B",84.9 ± 7.73 µM
same,inhibition at 200 µM,[1],67.6 ± 4.88%
Cc1[nH]c(C(=O)N/N=C\c2ccc(O)c(O)c2)c(C)c1C(=O)N/N=C\c1ccc(O)c(O)c1 [5617–0915],IC50,[2],> 100 µM
same,IC50,"[1]; 100 μM ATP, read-out: IC50B",79.4 ± 4.55 µM
same,inhibition at 200 µM,[1],71.5 ± 4.33%
CN(C)C(=O)C1CCCN1Cc1nc2sc(-c3ccccc3)cc2c(=O)[nH]1 (stereo not shown) [Z196022762],Inhibition (%),[1]; 100 μM ATP,57.11 ± 2.22%
O=C1NC(=S)S/C1=C\c1c[nH]c2ccc(OCc3ccccc3)cc12 [3681–1274],AI-2 QS inhibitory activity (in words),[2],significant QS inhibitory activities
same,IC50,[2],42.2 ± 2.15 µM
same,IC50,"[1]; 100 μM ATP, read-out: IC50B",133 ± 8.85 µM
same,inhibition at 200 µM,[1],66.2 ± 3.54%
C/C(=N/NC(=S)Nc1cccc(C(=O)O)c1)c1ccc(C)cc1 [3284–1358],AI-2 QS inhibitory activity (in words),[2],significant QS inhibitory activities
same,maximum AI-2 QS inhibition,[2],> 80%
same,IC50,[2],37.8 ± 3.18 µM
same,maximum growth inhibition,[3],< 40%
same,IC50,"[1]; 50 μM ATP, read-out: IC50A",29.9 ± 1.95 µM
same,IC50,"[1]; 100 μM ATP, read-out: IC50B",41.8 ± 2.57 µM
same,IC50,"[1]; 150 μM ATP, read-out: IC50C",88.1 ± 3.89 µM
same,inhibition at 200 µM,[1],101 ± 3.82%
same,type of LsrK inhibition,[1],ATP-competitive inhibitors
"O=C1C=CC(=C(c2ccc(O)cc2)c2ccc(O)cc2)C=C1 [compound 5, rosolic acid]",IC50,[4]; 2019,11 µM
same,IC50,"[5]; ref Gatta et al., 2019",1 µM
O=C(O)CC(=O)Nc1ccc2nc(N(Cc3ccccc3)C(=O)c3cc(Br)c(Br)[nH]3)sc2c1 [compound 2],IC50,[4]; 2020,17 µM
same,IC50,"[5]; ref Gatta et al., 2020",15 ± 1 µM
Cc1c(CC(=O)O)c(=O)oc2cc(OCc3ccc(C(=O)O)o3)ccc12 [Y040-9027],IC50,[2],> 100 µM
same,IC50,"[1]; 100 μM ATP, read-out: IC50B",90 ± 5.18 µM
same,inhibition at 200 µM,[1],94.1 ± 6.72%
O=C(O)C[C@H]1S/C(=N\N=C2\C(=O)Nc3ccccc32)N(c2ccc(O)cc2)C1=O [4515–0182],IC50,[2],> 100 µM
same,IC50,"[1]; 100 μM ATP, read-out: IC50B",52.1 ± 2.68 µM
same,inhibition at 200 µM,[1],83.7 ± 9.63%
O=C(O)CCc1ccc(-c2ccccc2)n1CC(=O)Nc1ccccc1C(F)(F)F [D135-0149],AI-2 QS inhibitory activity (in words),[2],significant QS inhibitory activities
same,maximum AI-2 QS inhibition,[2],> 80%
same,IC50,[2],22.1 ± 1.66 µM
same,maximum growth inhibition,[3],< 40%
same,IC50,"[1]; 50 μM ATP, read-out: IC50A",21.8 ± 1.48 µM
same,IC50,"[1]; 100 μM ATP, read-out: IC50B",33.5 ± 2.52 µM
same,IC50,"[1]; 150 μM ATP, read-out: IC50C",80.1 ± 4.83 µM
same,inhibition at 200 µM,[1],83.9 ± 6.33%
same,type of LsrK inhibition,[1],ATP-competitive inhibitors
O=C(NC(Cc1c[nH]c2ccccc12)C(=O)O)c1ccccc1Cl (stereo not shown) [Z85881721],Inhibition (%),[1]; 100 μM ATP,10.12 ± 8.78%
Cc1c(O)cc(O)c2c(=O)c(O)c(-c3ccc(O)c(O)c3)oc12 [N025-0038],Kd,"[6]; His-tagged LsrK on NTA chip, 50 to 1.56 µM, affinity binding model",30.3 µM
same,LsrK specific binding (in words),[6]; SPR,specifically bound to LsrK; also recorded: exhibited LsrK specific binding
same,AI-2 QS inhibitory activity (in words),[2],significant QS inhibitory activities; also recorded: exhibited AI-2 QS inhibition at sub-minimum inhibitory concentrations; also recorded: exhibited QS inhibition at sub-MIC concentrations
same,IC50,[2],12.5 ± 0.99 µM
same,IC50,"[1]; 50 μM ATP, read-out: IC50A",26.6 ± 1.22 µM
same,IC50,"[1]; 100 μM ATP, read-out: IC50B",43.7 ± 4.31 µM
same,IC50,"[1]; 150 μM ATP, read-out: IC50C",68 ± 1.27 µM
same,inhibition at 200 µM,[1],80.5 ± 2.31%
same,type of LsrK inhibition,[1],ATP-competitive inhibitors
O=C(O)C(=O)Nc1nc2ccc(NC(=O)c3cc(Br)c(Br)[nH]3)cc2s1 [compound 3],IC50,[4]; 2020,0.6 ± 0.1 µM
same,IC50,"[5]; ref Gatta et al., 2020",18 ± 2 µM
Cc1ccc(Cl)c(Nc2ccccc2C(=O)O)c1Cl [compound 1],IC50,"[5]; ref Medarametla et al., 2018",178 µM
COC(=O)CSC1=NC(=O)C[C@H](c2ccc(Cl)cc2)[C@H]1C#N [2188–1861],AI-2 QS inhibitory activity (in words),[2],significant QS inhibitory activities
same,IC50,[2],38.4 ± 3.35 µM
same,IC50,"[1]; 100 μM ATP, read-out: IC50B",129 ± 6.85 µM
same,inhibition at 200 µM,[1],92.1 ± 6.68%
O=C(O)CCn1c(=O)[nH]c(=O)c2ccccc21 [Z166653136],Inhibition (%),[1]; 100 μM ATP,0%
"C[C@]1(OC(=O)/C=C/c2ccccc2)C[C@@H](O)[C@]2(O)C=CO[C@@H](O[C@@H]3O[C@H](CO)[C@@H](O)[C@H](O)[C@H]3O)[C@@H]21 [compound 4, harpagoside]",IC50,[4]; 2019,14 µM
same,IC50,"[5]; ref Gatta et al., 2019",10 µM
O=C(O)[C@@H]1[C@@H](C(=O)Nc2cc(C(F)(F)F)ccc2Cl)[C@H]2C=C[C@@H]1O2 [Y204-6349],IC50,[2],> 100 µM
same,IC50,"[1]; 100 μM ATP, read-out: IC50B",75.1 ± 1.19 µM
same,inhibition at 200 µM,[1],87.4 ± 2.6%
Cn1nc(-c2ccccc2)cc1C1COC2(CCCCC2)O1 (stereo not shown) [compound 6],IC50,"[5]; ref Stotani et al., 2019",119 µM

# Source: article PMC10244669, “Virtual screening–based discovery of AI-2 quorum sensing inhibitors that interact with an allosteric hydrophobic site of LsrK and their functional evaluation” (Frontiers in Chemistry, 2023)
